According to ChEMBL document CHEMBL5137035 (Eur J Med Chem, 2022):

Legend:
[1] = molecular target: T1, Dihydroorotate dehydrogenase (quinone), mitochondrial (Homo sapiens, UniProt Q02127); test: Inhibition of human N-terminal SUMO-tagged DHODH expressed in Escherichia coli BL21(DE3) at 100 nM using dihydroorotate as substrate by DCIP based microplate reader analysis relative to control
[2] = molecular target: T1, Dihydroorotate dehydrogenase (quinone), mitochondrial; test: Inhibition of human N-terminal SUMO-tagged DHODH expressed in Escherichia coli BL21(DE3) at 1 uM using dihydroorotate as substrate by DCIP based microplate reader analysis relative to control
[3] = molecular target: T1, Dihydroorotate dehydrogenase (quinone), mitochondrial; test: Inhibition of human N-terminal SUMO-tagged DHODH expressed in Escherichia coli BL21(DE3) using dihydroorotate substrate by DCIP based microplate reader analysis
HCT-116 = test: Antiproliferative activity against human HCT-116 cells expressing human DHODH assessed as reduction in cell viability measured after 96 hrs by MTT assay; type: functional, cell-based; details: HCT-116, 96 h
KG-1 = test: Antiproliferative activity against human KG-1 cells expressing human DHODH assessed as reduction in cell viability measured after 96 hrs by MTT assay; type: functional, cell-based; details: KG-1, 96 h
U-937 = test: Antiproliferative activity against human U-937 cells expressing human DHODH assessed as reduction in cell viability measured after 96 hrs by MTT assay; type: functional, cell-based; details: U-937, 96 h
[4] = Acute toxicity in BALB/c mouse assessed as decrease in body weight at 300 mg/kg, po measured for 14 days; type: organism-based; details: in vivo, 336 h, time 14 day
[5] = Cytotoxicity against human HL7702 cells expressing human DHODH assessed as reduction in cell viability measured after 96 hrs by MTT assay; type: toxicity, cell-based; details: HL7702 (L02) cells expressing human DHODH
A-375 = test: Antiproliferative activity against human A375 cells expressing human DHODH assessed as reduction in cell viability measured after 96 hrs by MTT assay; type: functional, cell-based; details: A-375, 96 h
[6] = Cytotoxicity against human HCoEpiC cells expressing human DHODH assessed as reduction in cell viability measured after 96 hrs by MTT assay; type: toxicity, cell-based
Kasumi 1 = test: Antiproliferative activity against human Kasumi 1 cells expressing human DHODH assessed as reduction in cell viability measured after 96 hrs by MTT assay; type: functional, cell-based; details: Kasumi 1, 96 h
Raji = test: Antiproliferative activity against human Raji cells assessed as cell growth inhibition measured after 96 hrs by MTT assay; type: functional, cell-based
[7] = Toxicity in BALB/c mouse assessed as animal death at 300 mg/kg, po measured for 14 days; type: organism-based; details: in vivo, 336 h, time 14 day
SUD4 = test: Antiproliferative activity against human SU-DHL-4 cells expressing human DHODH assessed as reduction in cell viability measured after 96 hrs by MTT assay; type: functional, cell-based; details: SU-DHL-4, 96 h
[8] = Acute toxicity in BALB/c mouse assessed as average body weight at 300 mg/kg, po measured after 14 days; type: organism-based; details: in vivo, 336 h, time 14 day
[9] = Renal toxicity in BALB/c mouse assessed as change in blood uric acid level at 300 mg/kg, po measured after 14 days by biochemical assay; type: organism-based; details: in vivo, 336 h, time 14 day
[10] = Hepatotoxicity in BALB/c mouse assessed as change in blood ALT level at 300 mg/kg, po measured after 14 days by biochemical assay; type: toxicity, organism-based; details: in vivo, 336 h, time 14 day
[11] = Hepatotoxicity in BALB/c mouse assessed as change in blood AST level at 300 mg/kg, po measured after 14 days by biochemical assay; type: toxicity, organism-based; details: in vivo, 336 h, time 14 day
[12] = Hepatotoxicity in BALB/c mouse assessed as change in blood ALP level at 300 mg/kg, po measured after 14 days by biochemical assay; type: toxicity, organism-based; details: in vivo, 336 h, time 14 day

T1 sequence (Q02127 whole entry): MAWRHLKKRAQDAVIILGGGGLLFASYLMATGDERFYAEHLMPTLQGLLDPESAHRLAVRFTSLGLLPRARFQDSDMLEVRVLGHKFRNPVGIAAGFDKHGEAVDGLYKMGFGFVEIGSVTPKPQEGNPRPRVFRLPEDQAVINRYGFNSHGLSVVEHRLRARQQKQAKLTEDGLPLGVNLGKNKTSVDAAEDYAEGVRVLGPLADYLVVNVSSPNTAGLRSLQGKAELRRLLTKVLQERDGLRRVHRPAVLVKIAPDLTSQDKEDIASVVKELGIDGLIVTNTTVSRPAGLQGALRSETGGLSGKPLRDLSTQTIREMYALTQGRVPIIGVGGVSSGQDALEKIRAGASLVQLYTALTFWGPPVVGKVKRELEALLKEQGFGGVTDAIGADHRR

Molecule `CCC(C)Oc1cc(NC(=O)/C(C#N)=C(/C)O)c(F)cc1-c1ccc(C(F)(F)F)cc1` (stereo not given) has an inhibition [1] of 34.1% and an inhibition [2] of 77.2%.
For `CCOc1cc(NC(=O)/C(C#N)=C(/C)O)c(F)cc1-c1cccc(OC)c1`, the inhibition [1] was 65.2%, the IC50 [3] was 41.4 nM and the inhibition [2] was 93.1%.
Work on `CCC(C)Oc1cc(NC(=O)/C(C#N)=C(/C)O)c(F)cc1-c1cc(Cl)ccc1C` (stereo not given) yielded an inhibition [1] of 47.2% and an inhibition [2] of 85.5%.
In the case of `CCC(C)Oc1cc(NC(=O)/C(C#N)=C(/C)O)c(F)cc1-c1ccc(F)c(F)c1` (stereo not given), the inhibition [1] is reported as 80.1%, the IC50 [3] is reported as 30.4 nM and the inhibition [2] is reported as 97.5%.
With `CCC(C)Oc1cc(NC(=O)/C(C#N)=C(/C)O)c(F)cc1-c1ccc2ccccc2c1` (stereo not given) the IC50 (HCT-116) was 150 nM, the IC50 (KG-1) was 620 nM and the IC50 (U-937) was 200 nM. The Activity [4] was “Toxic”, the IC50 at 96 h [5] was 6.48 µM and the IC50 (A-375) was 270 nM. For the same molecule, the IC50 at 96 h [6] was 4.71 µM, the IC50 (Kasumi 1) was 130 nM and the IC50 (Raji) was 18.8 nM. The inhibition [1] was 95.6%, the Activity [7] was “Toxic” and the IC50 (SUD4) was 160 nM. It also gave an IC50 [3] of 6.6 nM and an inhibition [2] of 99.8%.
`CCC(C)Oc1cc(NC(=O)/C(C#N)=C(/C)O)c(F)cc1-c1ccccc1` (stereo not given) showed an inhibition [1] of 80.4%, an IC50 [3] of 28.9 nM and an inhibition [2] of 96.9%.
Molecule `C/C(O)=C(\C#N)C(=O)Nc1ccc(C(F)(F)F)cc1` has an inhibition [2] of 71.2%.
In the case of `C=C(C)COc1cc(NC(=O)/C(C#N)=C(/C)O)c(F)cc1-c1cccc(OC)c1`, the inhibition [1] is reported as 58.6% and the inhibition [2] is reported as 92.9%.
In the case of `COc1cccc(-c2ccc(NC(=O)/C(C#N)=C(/C)O)cc2OC)c1`, the inhibition [1] is reported as 48.4% and the inhibition [2] is reported as 89.2%.
`COc1cccc(-c2cc(F)c(NC(=O)/C(C#N)=C(/C)O)cc2OC)c1` showed an inhibition [1] of 57.7%, an IC50 [3] of 52.1 nM and an inhibition [2] of 91.8%.
For `CCC(C)Oc1cc(NC(=O)/C(C#N)=C(/C)O)c(F)cc1-c1cc2ccccc2o1` (stereo not given), the inhibition [1] was 89.9%, the IC50 [3] was 12.9 nM and the inhibition [2] was 97.4%.
`CCC(C)Oc1cc(NC(=O)/C(C#N)=C(/C)O)c(F)cc1-c1ccc(F)nc1` (stereo not given) gave an inhibition [1] of 52.3% and an inhibition [2] of 89.7%.
For `COc1cccc(-c2cc(F)c(NC(=O)/C(C#N)=C(/C)O)cc2OC(C)C)c1`, the IC50 (Raji) was 980 nM, the inhibition [1] was 87.7% and the IC50 [3] was 13.9 nM. For the same molecule, the inhibition [2] was 96.6%.
For `CCC(C)Oc1cc(NC(=O)/C(C#N)=C(/C)O)c(F)cc1-c1cccc2ccccc12` (stereo not given), the IC50 (Raji) was 215 nM, the inhibition [1] was 95% and the IC50 [3] was 9.8 nM. The inhibition [2] was 99.7%.
With `COc1cccc(-c2cc(F)c(NC(=O)/C(C#N)=C(/C)O)cc2OCC2CCCCC2)c1` the inhibition [1] was 64%, the IC50 [3] was 43.1 nM and the inhibition [2] was 93.6%.
`CCC(C)Oc1cc(NC(=O)/C(C#N)=C(/C)O)c(F)cc1-c1ccccc1C` (stereo not given) gave an inhibition [1] of 78.6%, an IC50 [3] of 31 nM and an inhibition [2] of 96.6%.
For `CCC(C)Oc1cc(NC(=O)/C(C#N)=C(/C)O)c(F)cc1-c1cc(F)cc(F)c1` (stereo not given), the inhibition [1] was 85.1%, the IC50 [3] was 22.6 nM and the inhibition [2] was 98.8%.
In the case of `CCC(C)Oc1cc(NC(=O)/C(C#N)=C(/C)O)c(F)cc1-c1cccc(F)c1` (stereo not given), the inhibition [1] is reported as 83.6%, the IC50 [3] is reported as 26.8 nM and the inhibition [2] is reported as 97.2%.
In the case of `CCC(C)Oc1cc(NC(=O)/C(C#N)=C(/C)O)c(F)cc1-c1cccc(C(F)(F)F)c1` (stereo not given), the IC50 (HCT-116) is reported as 270 nM, the Activity [8] is reported as 17.3 g and the Activity [9] is reported as “Toxic”. The IC50 (KG-1) was 990 nM, the IC50 (U-937) was 560 nM and the IC50 at 96 h [5] was > 10 µM. The IC50 (A-375) was 500 nM, the IC50 at 96 h [6] was > 10 µM and the IC50 (Kasumi 1) was 500 nM. For the same molecule, the Activity [10] was “Toxic”, the Activity [11] was “Toxic” and the IC50 (Raji) was 45.5 nM. The inhibition [1] was 92.4%, the IC50 (SUD4) was 300 nM and the IC50 [3] was 7.9 nM. For the same molecule, the inhibition [2] was 99.3% and the Activity [12] was “Toxic”.
Work on `CCC(C)Oc1cc(NC(=O)/C(C#N)=C(/C)O)c(F)cc1-c1ccc(Cl)cc1` (stereo not given) yielded an inhibition [1] of 68.5%, an IC50 [3] of 33.3 nM and an inhibition [2] of 95.4%.
